We go through two compounds from patent US20150202179A1, “FATTY ACID DERIVATIVES FOR USE IN A METHOD OF TREATING DEPRESSION AND ASSOCIATED CONDITIONS” (YISSUM RESEARCH DEVELOPMENT COMPANY OF THE HEBREW …, priority 2012, published 2015).

“Also recorded” adds a separate entry of the source.

The subject of data set [1] is serotonin (5HT) levels. Briefly: Serotonin (5HT) determination in brain tissue by HPLC with electrochemical detection. In kind it is in vivo, mice. The conditions noted are these: for 5HT: ng/g wet tissue +/− SEM; for 5HT levels in the hippocampus vs. control / 5HT levels in the hypothalamus vs. control: result in words. The method, then: (§1) Solution of DHBA as internal standard in the concentration of: 1 μg/ml in 0.1M perchloric acid, were prepared. Standard solutions of NE and 5HT in the concentration of 1-0.1 μg/ml in 0.1M perchloric acid were prepared.
(§2) Tissues (hypothalamus and hippocampus) obtained from 6-8 mice were dissected on ice surface and kept at −80 C. Hypothalamus (HT) or hippocampus (HC) from 1 mice were weighted (weight of HT −10-20 mg, HC 30-40 mg) and placed in eppendorf micro-centrifuge tube, 1.5 ml. To each tube was added 120-160 μl of ice cold solution of Perchloric acid and DHBA, homogenized in ice bath on Sonics vibra cell, 3×20 sec., 0.4 watts and centrifuged at 14,000×g at 4° C. 10 min. Supernatant gained was stored in ice before analysis.
(§3) The HPLC system consisted of Jasco PU-980 pump, Jasco AS-950-10 autosampler cooled at 4° C., H3 ODS-125A 3 μm 125 mm×4.6 mm i.d. analytical column (Hichrom, UK) were used. Electrochemical detector Coulochem ESA 5100A with analytical cell model 5011 was used for control detector voltage and record the current. Working electrode was set at potential +350 mV. Control and data collection/processing were handled through Borwin chromatography software.
(§4) The mobile phase composition: A stock buffer was prepared as follows: 20 mM sodium dihydrogenorthophosphate, EDTA 3 mg/l, 1-heptanesulfonic acid 1 g/l were dissolved in 1 liter deionized distilled water and buffered to pH 3.7 using concentrated phosphoric acid. To prepare the mobile phase buffer was mixed with acetonitrile (Baker HPLC analyzed) in the ratio 85:15 (v/v), filtered through a 0.2 μm membrane filter and degassed under vacuum after mixing. Mobile phase flow rate 1 ml/min. Injection volume 20 μl, retention time for DHBA 4.2 min., norepinephrine—3.1 min., 5HT 8.6 min. For calibration curve 1 ug/ml solution of DHBA together with 1.0-0.1 μg/ml solutions of 5HT and NE were used. The ratio between 5HT or NE and DHBA used to calculate the level of 5HT and NE in the sample. Date are given in ng/g wet tissue +/−SEM.

Data set [2] deals with Norepinephrine (NE) levels. Briefly: Norepinephrine (NE) determination in brain tissue by HPLC with electrochemical detection. In kind it is in vivo, mice. The settings on record: for NE: ng/g wet tissue +/− SEM; for norepinephrine levels in the hippocampus vs. control / norepinephrine levels in the hypothalamus vs. control: result in words. The procedure: as §1, §2, §3, §4

A short description of data set [3]: Weight and food consumption in Sabra mice. In kind it is in vivo. The method, then:
140 Female Sabra Mice 12 weeks old are divided to […] 10 mice in each group with equal weight. Mice are administered I.P. with either saline or 1 mg/kg Fluoxetine (PROZAC), compound 1, 4, 5, 7, 10, 11, 12, 13, 14, 15, 19, 26 for a 4 weeks period. On day 30 and on, mice were tested by the following behavioral tests. […]

Data set [4] is described as follows: Weight and food consumption in OB/OB mice which lack the leptin gene. In kind it is in vivo. An excerpt:
Thus the compounds of the invention can be used to treat conditions that are mediated by the enhancement of leptin levels. In obesity there is high leptin level however the leptin receptors are not responding. High CNS leptin level has anti-depression effect however, if there is tolerance there is no anti depression effect.

A short description of data set [5]: Tail Suspension Test, separated BALB/c mice (model for depression). It is filed as in vivo. The conditions noted are these: compounds 1 mg/kg i.p., imipramine 10 mg/kg i.p.; day 7; in relation to vehicle. An excerpt: Tail suspension test (TST): Animals are suspended upside down by adhesive tape placed 1 cm from the tail tip. The elevation of the animal is 50 cm from the nearest surface. […] Statistical analysis compares the magnitude of immobility (in seconds) between different treatment groups. In this test, antidepressants characteristically cause an increase of the time fraction spent by the animal as active at the expense of the inactivity period.
50, 2 month old female BALB/c mice were separated (each mouse in a different cage) for 9 days period (a model for depression). On days 7, 8, 9, 34-40 mice were administered with either vehicle or compounds X, 12 and 15 (1 mg/kg i.p.) or imipramine 10 mg/kg (anti-depressant) i.p. and tested in the Tail suspension test on day 7 of the experiment (10 mice per group).

Data set [6] in a line: Forced Swim Test (FST), separated BALB/c mice. In kind it is in vivo. The settings on record: compounds 1 mg/kg i.p., imipramine 10 mg/kg i.p.; day 8; in relation to vehicle. The procedure:
Forced swim test (FST): The animal is placed in a circular, transparent, plexiglass tank measuring 21 cm in diameter and 46 cm in height containing water 15 cm high, maintained at 23-25° C. […] Also measured is the latency period, the time elapsing, for each animal from immersion in the water tank until the first occurrence of immobility. Since climbing activity is minimal in mice, […].
50, 2 month old female BALB/c mice, 10 mice per group, on ad libitum diet were separated (each mouse in a different cage) for 9 days (Separation Stress, a model for depression). On the 7, 8, 9, 34-40 days mice were administered with either vehicle or compounds x, 12 and 15 (1 mg/kg i.p.) or imipramine 10 mg/kg (antidepressant) i.p. and tested in the forced swim test (FST) on day 8.

Data set [7] is described as follows: Novelty Suppressed Feeding Test (NSFT), separated BALB/c mice. It is filed as in vivo. The settings on record: compounds 1 mg/kg i.p., day 9; for food intake in NSFT: in relation to vehicle and more than imipramine 10 mg/kg; for motor activity in NSFT: resembled imipramine 10 mg/kg. The procedure: (§5) Novelty suppressed feeding test (NSFT): After the last treatment injection, all food is removed from the cage for 24 hours (water available ad libitum). At the end of this time, the animal is introduced into a 50×50×20 (height) cm wooden arena the floor of which is marked with equal rectangles of 10×10 cm. A pellet of food is placed on an elevated surface in the center of the arena. The time elapsing from the introduction of the animal into the arena until it commences eating (latency to feed) is recorded. The animal is removed from the arena immediately after it begins to eat or after not doing so for 5 min. During the test, the number of lines crossed by the animal is counted as a measure of motor activity, and calibrated for 5 min if the animal started eating before that. After the test, the animal is immediately transferred to its home cage and left to consume a previously weighed amount of food for 10 minutes. On completion of this period the food is weighed again to calculate the home cage food consumption.
50, 2 month old female BALB/c mice, 10 mice per group, on ad libitum diet were separated (each mouse in a different cage) for 9 days (Separation Stress, a model for depression). On the 7, 8, 9, 34-40, days mice were administered with either vehicle or compounds x, 12 and 15 (1 mg/kg i.p.) or imipramine 10 mg/kg (antidepressant) i.p. and tested in Novel Suppressed Feeding Test on day 9.
as §5, with “FIGS. 9A-9C show the results of the NSFT. […]” for “Novelty suppressed feeding test (NSFT):”, “hours.” for “hours (water available ad libitum).”, “into” for “into a 50×50×20 (height) cm wooden arena”, “open field test.” for “floor of which is marked with equal rectangles of 10×10 cm.”, “to find” for “elapsing from”, “food was” for “introduction of the animal into the arena until it commences eating (latency to feed) is”

Data set [8] in a line: Eight Arm Maze Test, separated BALB/c mice. The settings on record: compounds 1 mg/kg i.p., imipramine 10 mg/kg i.p.; day 34-38; in relation to vehicle (p<0.05). It is filed as in vivo. The procedure: 2 month old female BALB/c mice 10 mice per group were separated (each mouse in a different cage) for 9 days (a model for depression). On days 7, 8, 9, 34-40 days mice were administered with either vehicle or compounds X, 12 and 15 (1 mg/kg i.p.) or imipramine 10 mg/kg (anti-depressant) i.p. and tested in the Eight Arm Maze from day 34-38.

Data set [9] in a line: Neurological score measured by the NSS method. It is filed as in vivo, BALB/c mice. The settings on record: 1 mg/kg i.p.

`CCCCCCCC/C=C\CCCCCCCCNC(=O)N[C@H](CO)C(C)C` [Compound 15, Oleyl-amine-carbonyl-L-valinol]: the “5HT” value in [1] (Hippocampus) came out at 396.7 ± 21 ng/g; in data set [1] (Hypothalamus) it was 853 ± 78.3 ng/g. For the same compound, the “5HT levels in the hippocampus vs. control” value in [1] is reported as “increased significantly”; in data set [1] (listed as compound 15), “significantly enhanced”. Besides, the figures for the “5HT levels in the hypothalamus vs. control” value in data set [1] and in [1] (listed as compound 15) were “increased significantly” and “significantly enhanced”, respectively. For the same compound, the entries for the “NE” value in data set [2] (Hippocampus) and in data set [2] (Hypothalamus) were 373.7 ± 48.1 ng/g and 1234.8 ± 59.8 ng/g, respectively. Moreover, the “norepinephrine levels in the hippocampus vs. control” value in data set [2] is “increase significantly”; in data set [2] (listed as compound 15) it was “significantly enhanced”. Further, the “norepinephrine levels in the hypothalamus vs. control” value in data set [2] is “increased significantly”; in data set [2] (listed as compound 15), “significantly enhanced”. The food consumption entry was “significant decrease” in data set [3] and “did not change” in data set [4]. The “weight (weight loss)” value is “significant weight loss; also recorded: significant decrease” in [3] and “do not produce weight loss; also recorded: did not change” in data set [4]. Further, the “activity in Tail Suspension Test” value in data set [5] is recorded as “significantly enhanced activity”. Besides, the “swimming activity in forced swim test” value in data set [6] is on record as “significantly enhanced swimming activity”. In addition, the “food intake in NSFT” value in data set [7] was “significantly enhanced food intake”. For the same compound, the “motor activity in NSFT” value in data set [7] is listed as “enhanced motor activity”. For the same compound, the “performance in the Eight Arm Maze” value in [8] is on record as “significantly improved performance”. Further, the “neurological score (NSS method)” value in data set [9] is recorded as “did not affect neurological score”.
On to `CCCCCCCC/C=C\CCCCCCCCOC(=O)N[C@H](CO)C(C)C` [Compound 12, Oleyloxycarbonyl-L-Valinol amide], for which the “5HT” value in data set [1] (Hippocampus) was determined as 332.1 ± 52.7 ng/g. Further, the “5HT” value in [1] (Hypothalamus) turned out to be 810.5 ± 70.6 ng/g. Further, in data set [1], the “5HT levels in the hippocampus vs. control” value is “significantly enhanced; also recorded: increased significantly” and the “5HT levels in the hypothalamus vs. control” value is given as “increased significantly”. The “NE” value in data set [2] (Hippocampus) came to 378.9 ± 31.4 ng/g. In data set [2], the “norepinephrine levels in the hippocampus vs. control” value is listed as “significantly enhanced; also recorded: increase significantly”. Besides, in [3], the food consumption entry is recorded as “significant decrease” and the “weight (weight loss)” value is “significant weight loss; also recorded: significant decrease”. Further, in [4], the food consumption result is on record as “did not change” and the “weight (weight loss)” value is “do not produce weight loss; also recorded: did not change”. Further, the “swimming activity in forced swim test” value in data set [6] is reported as “significantly enhanced swimming activity”. In addition, in data set [7], the “food intake in NSFT” value is given as “significantly enhanced food intake” and the “motor activity in NSFT” value was “enhanced motor activity”. The “performance in the Eight Arm Maze” value in data set [8] is on record as “significantly improved performance”. For the same compound, the “neurological score (NSS method)” value in data set [9] is given as “did not affect neurological score”.
